Test results from patent US9394299B2, “Rilyazine derivatives and compositions for the treatment of cancer” (Warner Babcock Institute for Green Chemistry, LLC, priority 2013, dated 2016).
Entries after “also recorded” stand apart in the source; their conditions may differ.

Experiments:
[1] = tested on: 60 cell lines (human tumor cell lines of the cancer screening panel); assay: NCI 60 cell line screening, single point dosing at 10 μM (SRB); assay type: cell-based
Method: The screening is a two-stage process, beginning with the evaluation of all compounds against 60 cell lines at a single dose of 10^−5 M.
The human tumor cell lines of the cancer screening panel are grown in RPMI 1640 medium containing 5% fetal bovine serum and 2 mM L-glutamine. Cells are inoculated into 96 well microtiter plates in 100 μL at plating densities ranging from 5,000 to 40,000 cells/well depending on the doubling time of individual cell lines. After cell inoculation, the microtiter plates are incubated at 37° C., 5% CO2, 95% air and 100% relative humidity for 24 h prior to addition of experimental drugs.
After 24 h, two plates of each cell line are fixed in situ with TCA, to represent a measurement of the cell population for each cell line at the time of drug addition Time Zero (Tz). Experimental drugs are solubilized in dimethyl sulfoxide:glycerol 9:1 at 400-fold the desired final maximum test concentration and stored frozen at −70° C. prior to use. At the time of drug addition, an aliquot of frozen concentrate is thawed and diluted to twice the desired final maximum test concentration with complete medium containing 50 μg/ml gentamicin. Additional four, 10-fold or ½ log serial dilutions are made to provide a total of five drug concentrations plus control. Aliquots of 100 μl of these different drug dilutions are added to the appropriate microtiter wells already containing 100 μl of medium, resulting in the required final drug concentrations.
Positive control is prepared by adding the known anti-tumor agent adriamycin, NSC 123127, prepared and stored the same as the compounds for testing.
Following drug addition, the plates are incubated for an additional 48 h at 37° C., 5% CO2, 95% air, and 100% relative humidity. For adherent cells, the assay is terminated by the addition of cold TCA. Cells are fixed in situ by the gentle addition of 50 μl of cold 50% (w/v) TCA (final concentration, 10% TCA) and incubated for 60 minutes at 4° C. The supernatant is discarded, and the plates are washed five times with tap water and air dried. Sulforhodamine B (SRB) solution (100 μl) at 0.4% (w/v) in 1% acetic acid is added to each well, and plates are incubated for 10 minutes at room temperature. After staining, unbound dye is removed by washing five times with 1% acetic acid and the plates are air dried. Bound stain is subsequently solubilized with 10 mM trizma base, and the absorbance is read on an automated plate reader at a wavelength of 515 nm. For suspension cells, the methodology is the same except that the assay is terminated by fixing settled cells at the bottom of the wells by gently adding 50 μl of 80% TCA (final concentration, 16% TCA).
For the 1-dose 60 cell testing, the Growth Percent is calculated for each cell line/drug combination from the absorbance measurement for the no-drug control (C), the absorbance at time zero (Tz) and the absorbance measurement after incubation of the cells in the presence of drug (Ti): Growth Percent=[(Ti−Tz)/(C−Tz)]×100 for cell line/drug combinations for which Ti≧Tz. Growth Percent=[(Ti−Tz)/Tz]×100 for cell line/drug combinations for which Ti<Tz.
Calculation of the Growth Percent by these equations allows detection of both growth inhibition (Growth Percent values between 0 and 100) and lethality (Growth Percent values less than 0). For example, a Growth Percent value of 100 means no growth inhibition. A Growth Percent value of 40 would mean 60% growth inhibition. A Growth Percent value of 0 means no net growth over the course of the experiment, or “cytostatic”, no change by growth or cell death. A Growth Percent value of −40 would mean 40% lethality. A Growth Percent value of −100 means all cells are dead.
For 1-dose 60 cell testing, the Mean Growth Percent, Delta and Range across all 60 cell lines are also calculated. The Deviation of each cell line/drug combination from the Mean is also calculated and plotted: Deviation=Mean Growth Percent−Growth Percent […]

Colo-205 cells = assay: MTT cell proliferation assay, Colo-205; assay type: cell-based; details: 72 h-exposure, 30-0.041 μM
Method: In vitro characterizing of the effects of rilyazine analogs on cell proliferation and apoptosis in the paired epithelial/mesenchymal lines (Colo205/Colo-R, DLD/DLD-SNAIL and MCF7/MCF7-WISP) was performed in an independent laboratory.
The Dose Preparation is based on a reconstitute in DMSO. The Concentration of the stock solution is 100 mM. Storage of the stock solution is under −80° C.
Working drug solution of rilyazine analogs: A stock solution of 100 mM OTX015 in DMSO was prepared and stored at −80° C. For growth inhibition studies, dilution series were prepared by (1) diluting stock solution into DMSO, then (2) diluting 1:300 in culture medium supplemented with 10% FBS giving a final concentration in 0.3% DMSO in the 96-well plates.
Cell lines. Cells lines were maintained in RPMI 1640 (PAA Laboratories, France) supplemented with 10% fetal bovine serum (FBS; PAA Laboratories, France), 2 mM glutamine (PAA Laboratories, France), 100 units/ml penicillin and 100 μg/ml streptomycin (PAA Laboratories, France). Cells were free of Mycoplasma.
Proliferation assays. Cell proliferation was determined using the MTT assay (3-[4,5-dimethylthiazol-2-yl]-2,5-diphenyltetrazolium bromide; Sigma-Aldrich, St. Louis, Mo.). […] After incubation, the supernatant was discarded, the cell pellet was resuspended in 0.1 mL DMSO, and the absorbance was measured at 560 nm using a microplate reader (Thermo, France). […]

[2] = single dose 10^−5 M, 60 cell lines
[3] = single point 10 μM, 60 cell lines

Compound: S=c1c2ncccc2c(-c2ccccn2)nn1C1CCCCC1 [RL-4, 7-cyclohexyl-5-(pyridin-2-yl)pyrido[2,3-d]pyridazine-8(7H)-thione]
- GI50 ([1]; Homo sapiens, single point 10 μM, 22 of 60 cell lines, read-out: GI50 for 22 of 60 cell lines (NCI Results, single point, 10 μM)): ≤ 10 µM
- LC50 ([1]; Homo sapiens, single point 10 μM, all 60 cell lines, read-out: LC50 for all 60 cell lines tested (NCI Results, single point, 10 μM)): > 10 µM
- Delta of Growth Percent across all cell lines [1, 2]: 52.07
- Mean Growth Percent across all cell lines [1, 2]: 59.94%
- Range of Growth Percent across all cell lines [1, 2]: 121.36
- number of cell lines with Growth Percentages greater than 90% ([1]; single dose 10^−5 M, of 60 cell lines): 6
- anti-proliferative effect / growth inhibition (in words) [1, 3]: significant growth inhibition in almost all cell lines; also recorded: has anti-proliferative effects; also recorded: showed cell growth inhibition across the screened cell lines; also recorded: significant growth inhibition in cancer cell lines
- toxicity / cell lethality (in words) [1, 3]: relatively non-toxic; also recorded: no associated toxicity; also recorded: No Toxicity is observed
- number of cell lines with growth inhibition ≧50% ([1]; single point 10 μM, of 60 cell lines tested): 22
- anti-proliferative effects (in words) (Colo-205 cells): dose-dependent anti-proliferative effects
